Test [1] concerns Hepatitis C virus. The test is described as follows: Inhibition of HCV 1b con1 isolate recombinant NS5B Cdelta21 RNA dependent RNA polymerase-mediated primer-dependent transcription by SPA. Also noted: species or system Hepacivirus hominis.
In test [2] the test system is Hepatitis C virus. The test is described as follows: Antiviral activity against HCV 1b having NS5B E1202G/T1280I/K1846 mutation infected in human hepatoma cells after 3 days by replicon luciferase assay. The class given is functional, organism-based, Hepacivirus hominis. To be noted: genotype 1b, 72 h. In general terms: A replicon is a self-replicating genome or part of one, used to study replication in cells.

Test [3] concerns Hepatitis C virus. Briefly: Binding affinity to HCV 1b con1 isolate recombinant NS5B Cdelta21 RNA dependent RNA polymerase overexpressed in Escherichia coli BL21(DE3) by surface plasmon resonance experiment. Also noted: species or system Hepacivirus hominis. A general note: SPR reads the build-up and loss of mass on a sensor chip optically.

Broadly, the IC50 is the midpoint of a concentration-inhibition curve. As usually defined, the EC50 is the concentration giving half of the maximal effect. A high value points to lower potency in that assay. In general, Kd refers to the equilibrium constant for the complex coming apart.

Take `Cc1cccc(C(=O)N2c3cccc(O)c3NC3=C([C@@H]2c2ccc(OCc4ccccc4)cc2F)S(=O)(=O)CC(C)(C)C3)n1`: the IC50 in the test on Hepatitis C virus [1] came to 26 nM. The EC50 in the test with Hepatitis C virus [2] came out at 29 nM.

On to `Cc1cccc(C(=O)N2c3cccc(O)c3NC3=C(C2c2ccc(OCc4ccccc4)cc2F)S(=O)(=O)CC(C)(C)C3)n1` (racemic), for which the half-inhibitory concentration (IC50) in the test with Hepatitis C virus [1] was found to be 120 nM. A half-maximal effect with Hepatitis C virus [2] (EC50) was put at 52 nM.

As to `Cc1cccc(C(=O)N2c3cccc(O)c3NC3=C([C@H]2c2ccc(OCc4ccccc4)cc2F)S(=O)(=O)CC(C)(C)C3)n1`, the IC50 in the test with Hepatitis C virus [1] is 6700 nM. For the same compound, a half-maximal effect in the test on Hepatitis C virus [2] (EC50) was put at 4800 nM.

Regarding `CC(=O)N1c2cccc(O)c2NC2=C(C(=O)CC(C)(C)C2)[C@@H]1c1ccc(OCc2ccccc2)cc1Cl`, the response in the test with Hepatitis C virus [2] was half-maximal at 1200 nM (EC50). This lies in the single-digit micromolar range.

For the compound `Cc1cccc(C(=O)N2c3cccc(O)c3NC3=C(C(=O)CC(C)(C)C3)[C@@H]2c2ccc(OCc3ccccc3)cc2F)n1`, the Kd in the test on Hepatitis C virus [3] was 15 nM. Besides, in the test with Hepatitis C virus [1], the half-inhibitory concentration (IC50) is 74 nM. The compound further gave an EC50 in the test on Hepatitis C virus [2] of 400 nM.

(Values after ChEMBL document CHEMBL1137775, “Structure-based design of a benzodiazepine scaffold yields a potent allosteric inhibitor of hepatitis C NS5B RNA polymerase” (J Med Chem, 2009).)
